Assays:
myosin heavy chain α = target: T1, myosin heavy chain α (Rattus norvegicus, UniProt P02563); test: Modified biotin switch assay, sites of HNO modification; type: biochemical; conditions: for number of independent observations of peptide: Cys 37, 25 μM NCA or 500 μM AS; for Position of modified Cys: myosin heavy chain (α), Table 2
T1 construct: Rat myofibrillar preparations, as described in [7], were obtained from frozen ventricles (Pel Freez Biologicals); tissue Pel Freez Biologicals; host or cells: myofibrils from frozen rat ventricles
T1 sequence (P02563 whole entry): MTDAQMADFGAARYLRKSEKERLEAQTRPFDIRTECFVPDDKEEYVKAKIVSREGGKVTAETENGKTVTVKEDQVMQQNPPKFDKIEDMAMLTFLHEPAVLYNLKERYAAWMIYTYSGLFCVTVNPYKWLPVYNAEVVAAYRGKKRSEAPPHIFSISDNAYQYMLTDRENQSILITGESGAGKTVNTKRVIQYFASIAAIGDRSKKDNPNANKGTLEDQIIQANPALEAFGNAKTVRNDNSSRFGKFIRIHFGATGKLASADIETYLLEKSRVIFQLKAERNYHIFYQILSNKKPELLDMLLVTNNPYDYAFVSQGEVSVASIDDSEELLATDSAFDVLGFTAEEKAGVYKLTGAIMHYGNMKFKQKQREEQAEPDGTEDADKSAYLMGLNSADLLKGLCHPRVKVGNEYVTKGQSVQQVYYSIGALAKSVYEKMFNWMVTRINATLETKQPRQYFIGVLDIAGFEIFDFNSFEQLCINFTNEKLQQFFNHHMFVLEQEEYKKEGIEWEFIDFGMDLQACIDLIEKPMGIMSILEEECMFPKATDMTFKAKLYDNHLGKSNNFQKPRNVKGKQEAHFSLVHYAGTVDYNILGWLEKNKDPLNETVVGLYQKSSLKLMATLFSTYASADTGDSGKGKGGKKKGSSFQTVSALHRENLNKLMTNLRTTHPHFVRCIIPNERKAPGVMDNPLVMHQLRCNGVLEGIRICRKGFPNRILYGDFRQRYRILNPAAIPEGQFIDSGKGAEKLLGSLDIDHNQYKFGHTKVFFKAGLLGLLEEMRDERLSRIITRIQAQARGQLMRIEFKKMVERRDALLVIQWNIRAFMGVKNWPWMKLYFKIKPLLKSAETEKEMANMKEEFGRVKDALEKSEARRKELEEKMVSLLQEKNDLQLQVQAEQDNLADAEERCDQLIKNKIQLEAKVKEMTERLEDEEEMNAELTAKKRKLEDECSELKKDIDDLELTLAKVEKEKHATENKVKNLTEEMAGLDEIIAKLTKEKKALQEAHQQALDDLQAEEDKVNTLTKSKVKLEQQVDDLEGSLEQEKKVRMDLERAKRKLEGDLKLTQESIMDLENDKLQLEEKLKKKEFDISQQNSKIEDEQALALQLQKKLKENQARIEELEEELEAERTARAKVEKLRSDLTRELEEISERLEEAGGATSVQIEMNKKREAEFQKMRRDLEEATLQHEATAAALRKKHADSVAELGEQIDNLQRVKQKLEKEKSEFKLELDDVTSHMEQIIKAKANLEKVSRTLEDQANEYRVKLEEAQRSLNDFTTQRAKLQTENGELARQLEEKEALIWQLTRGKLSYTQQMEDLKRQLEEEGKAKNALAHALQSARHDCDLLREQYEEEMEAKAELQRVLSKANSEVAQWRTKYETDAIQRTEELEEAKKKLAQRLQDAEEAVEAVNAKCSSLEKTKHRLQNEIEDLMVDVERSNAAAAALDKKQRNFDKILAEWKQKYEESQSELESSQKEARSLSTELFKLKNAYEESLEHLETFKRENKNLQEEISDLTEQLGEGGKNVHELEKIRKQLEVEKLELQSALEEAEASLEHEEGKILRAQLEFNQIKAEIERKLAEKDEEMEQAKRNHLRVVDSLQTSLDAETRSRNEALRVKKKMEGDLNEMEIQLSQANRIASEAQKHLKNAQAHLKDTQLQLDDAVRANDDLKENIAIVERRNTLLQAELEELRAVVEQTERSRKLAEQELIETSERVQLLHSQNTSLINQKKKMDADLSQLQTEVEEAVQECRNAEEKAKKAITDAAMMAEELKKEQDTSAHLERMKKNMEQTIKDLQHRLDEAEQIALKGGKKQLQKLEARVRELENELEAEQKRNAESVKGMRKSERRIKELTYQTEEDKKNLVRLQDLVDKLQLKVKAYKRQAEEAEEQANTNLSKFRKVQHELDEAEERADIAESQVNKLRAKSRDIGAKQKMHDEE
Method: (§1) Rat myofibrillar preparations, as described in [7], were obtained from frozen ventricles (Pel Freez Biologicals) minced in 20 volumes/tissue weight of 4° C. relax buffer (SRB (75 mM KCL, 10 mM imidazole pH 7.2, 2 mM MgCl2) plus 4 mM phosphocreatine, 1 mM ATP, 50 mM BDM, 1 mM benzamidine-HCL, 0.1 mM PMSF, 1 μg/ml leupeptin, 1 μg/ml pepstatin, 1% (v/v) Trixon X-100) and adjusted to 10 mM EDTA. Minced preparations were centrifuged for 8 min at 3000xg and the supernant was decanted. Resulting pellets were resuspended in 10 volumes of SRB plus 1% Triton X-100 and subjected to 6 strokes in a Duall tissue homogenizer and centrifuged as above. Pellets were gently resuspended and centrifuged as above twice more in SRB including 1% (v/v) Triton X-100, twice in SRB lacking Triton X-100 and once in K-60 buffer (60 mM KCL, 20 mM MOPS, 2 mM MgCl2 pH 7) before being resuspended in 5 volumes of K-60.
(§2) Detection of HNO modifications by Modified Biotin Switch. HNO modified thiols were detected using a modification to the standard biotin switch protocol. In brief, 100 μg of rat myofibrils/treatment were diluted to 0.5 μg/μl in HEN (250 mM HEPES pH 7.7, 1 mM EDTA and 0.1 mM neocuproine) including 0.1% (w/v) SDS and exposed to a treatment for 10 min at 37° C. which was subsequently removed by acetone precipitation. Remaining free thiols were blocked by addition of 300 μl of HEN including 2.5% (w/v) SDS and 20 mM N-ethylmaleimide (NEM), incubated for 20 min at 50° C. Excess NEM was removed by acetone precipitation. HNO and/or NO modified thiols were reduced using 5 mM DTT or 1 mM ascorbate in 150 μl of HEN including 1% (w/v) SDS and biotinylated with 0.8 mM Biotin-HPDP (Pierce) for one hour at room temperature. Excess biotin-HPDP was removed by acetone precipitation (2 volumes) and resultant pellets were carefully washed with an additional volume of acetone. Biotinylated proteins were resuspended in 1 ml of HEN including 0.1% (w/v) SDS and captured by incubation with 15 μl of washed, packed Ultralink Immobilized Streptavidin (Pierce) for one hour at room temperature. Beads were washed four times in 50 bead volumes of HEN (twice including 0.1% (w/v) SDS, twice including 600 mM NaCl) and twice with EB (20 mM HEPES pH 7.7, 100 mM NaCl, 1 mM EDTA). Captured proteins were eluted with 40 μl of EB containing 100 mM DTT, mixed with 15 μl of 4×LDS sample buffer, boiled, separated by SDS PAGE and silver stained. For MS studies, biotinylated proteins were digested overnight with trypsin (Promega) prior to capture and washed ten additional times with 5 mM ammonium bicarbonate/20% acetonitrile before being eluted in 100 μl of wash buffer including 100 mM DTT as described. Captured peptides were identified using a LTQ linear ion trap tandem mass spectrometer (ThermoFinnigan, Waltham Mass. USA) with data searched against the rat IPI primary sequence database using the sorcerer searching platform (sagen).
(§3) To investigate the modifications that underlie the difference seen in the functional effect of these two compounds we performed an analysis on the myofilament proteins, using a modified biotin-switch method, followed by mass spectrometry for identification (FIG. 3). Following treatment with HNO or control compounds, unmodified cysteines are blocked with NEM before treatment with a reducing agent and labeling the exposed cysteines with a biotin group (FIG. 3A). In this case, 5 mM DTT was used as the reducing agent because it was shown in the physiological studies to reverse the effect of the treatment. […] Tryptic or chymotryptic peptides containing the modified cysteine residues were captured and identified by LC/MS/MS. […] To parse the role of candidate sites of modification between these two effects a comparative proteomics experiment was designed where modifications specific to NCA treatment would be considered candidates for the Ca^2+ effect while sites identified in common between AS and NCA could be candidates for the force effect (FIG. 3C). […]

myson binding protein C = target: T2, myson binding protein C (Rattus norvegicus, UniProt P56741); test: as above; type: biochemical; conditions: for number of independent observations of peptide: Cys 475, 25 μM NCA or 500 μM AS; for Position of modified Cys: myosin binding protein C, Table 2
T2 construct: Rat myofibrillar preparations, as described in [7], were obtained from frozen ventricles (Pel Freez Biologicals); tissue Pel Freez Biologicals; host or cells: myofibrils from frozen rat ventricles
T2 sequence (P56741 whole entry): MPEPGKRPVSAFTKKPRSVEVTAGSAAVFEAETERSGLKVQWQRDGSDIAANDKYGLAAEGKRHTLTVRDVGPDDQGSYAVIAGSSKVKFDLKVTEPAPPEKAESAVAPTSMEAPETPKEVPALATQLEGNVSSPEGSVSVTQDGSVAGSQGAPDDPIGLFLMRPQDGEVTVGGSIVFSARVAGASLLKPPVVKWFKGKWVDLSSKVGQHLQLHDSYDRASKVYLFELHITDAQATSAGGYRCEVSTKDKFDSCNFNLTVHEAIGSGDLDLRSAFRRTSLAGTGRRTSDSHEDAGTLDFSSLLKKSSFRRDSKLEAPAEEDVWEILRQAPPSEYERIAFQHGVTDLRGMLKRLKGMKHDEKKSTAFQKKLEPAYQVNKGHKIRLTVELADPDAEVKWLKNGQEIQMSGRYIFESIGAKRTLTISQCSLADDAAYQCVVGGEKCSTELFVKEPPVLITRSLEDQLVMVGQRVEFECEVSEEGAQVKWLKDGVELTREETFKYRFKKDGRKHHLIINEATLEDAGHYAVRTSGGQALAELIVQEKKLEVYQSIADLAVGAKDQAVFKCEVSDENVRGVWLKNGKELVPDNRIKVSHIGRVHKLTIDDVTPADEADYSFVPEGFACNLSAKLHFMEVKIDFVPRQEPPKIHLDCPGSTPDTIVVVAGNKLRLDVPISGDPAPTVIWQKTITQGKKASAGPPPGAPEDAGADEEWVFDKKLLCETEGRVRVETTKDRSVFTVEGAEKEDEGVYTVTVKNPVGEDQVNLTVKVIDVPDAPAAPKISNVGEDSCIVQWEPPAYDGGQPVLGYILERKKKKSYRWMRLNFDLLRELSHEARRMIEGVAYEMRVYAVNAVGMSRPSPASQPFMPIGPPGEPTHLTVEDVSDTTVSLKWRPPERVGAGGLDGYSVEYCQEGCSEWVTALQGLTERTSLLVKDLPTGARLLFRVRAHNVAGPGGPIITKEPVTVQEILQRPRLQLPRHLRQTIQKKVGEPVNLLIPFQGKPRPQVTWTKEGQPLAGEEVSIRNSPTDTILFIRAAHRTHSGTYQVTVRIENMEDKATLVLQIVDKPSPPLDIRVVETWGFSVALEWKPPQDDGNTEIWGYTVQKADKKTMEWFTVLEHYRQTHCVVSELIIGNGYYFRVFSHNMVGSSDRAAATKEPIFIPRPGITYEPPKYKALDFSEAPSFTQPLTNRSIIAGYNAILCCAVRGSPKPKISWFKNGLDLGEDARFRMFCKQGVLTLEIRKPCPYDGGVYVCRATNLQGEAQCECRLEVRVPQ
Method: as §1, §2, §3

myosin light chain 1 = target: T3, myosin light chain 1 (Rattus norvegicus, UniProt P16409); test: as above; type: biochemical; conditions: for number of independent observations of peptide: Cys 81, tryptic peptide ITYGQCGDVLR, 25 μM NCA or 500 μM AS; for Position of modified Cys: myosin light chain 1, Table 2
T3 construct: Rat myofibrillar preparations, as described in [7], were obtained from frozen ventricles (Pel Freez Biologicals); tissue Pel Freez Biologicals; host or cells: myofibrils from frozen rat ventricles
T3 sequence (P16409 whole entry): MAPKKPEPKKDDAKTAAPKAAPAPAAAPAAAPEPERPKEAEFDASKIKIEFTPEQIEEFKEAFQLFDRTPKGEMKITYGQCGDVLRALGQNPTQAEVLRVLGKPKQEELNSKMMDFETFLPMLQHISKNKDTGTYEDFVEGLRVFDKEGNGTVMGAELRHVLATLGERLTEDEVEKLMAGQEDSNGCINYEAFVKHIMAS
Method: as §1, §2, §3

α actin = target: T4, α actin (Rattus norvegicus, UniProt P68035); test: as above; type: biochemical; conditions: 25 μM NCA or 500 μM AS
T4 construct: Rat myofibrillar preparations, as described in [7], were obtained from frozen ventricles (Pel Freez Biologicals); tissue Pel Freez Biologicals; host or cells: myofibrils from frozen rat ventricles
Method: as §1, §2, §3

troponin C (cardiac) = target: T5, troponin C (cardiac) (Rattus norvegicus, UniProt Q4PP99); test: as above; type: biochemical; conditions: for number of independent observations of peptide: Cys 35, tryptic peptide AAFDIFVLGAEDGCISTK, 25 μM NCA or 500 μM AS; for Position of modified Cys: troponin C, Table 2
T5 construct: Rat myofibrillar preparations, as described in [7], were obtained from frozen ventricles (Pel Freez Biologicals); tissue Pel Freez Biologicals; host or cells: myofibrils from frozen rat ventricles
Method: as §1, §2, §3

intact trabeculae = test: Steady-state force-[Ca2+]i relationship in intact trabeculae (tetanized with ryanodine); type: cell-based, rat; set-up: [Ca2+]i required for 50% of activation (Ca50): unit not given here
[1] = Cys 12, tryptic peptide DDEETTALVCDNGSLVK
[2] = Cys 219, tryptic peptide LCYVALDFENEMATAASSSLEK
[3] = AS applied to isolated trebecula or skinned muscle preparations

Compound | number of independent observations of peptide (myosin heavy chain α; chymotryptic peptide DIRTECFVPDDKEEY) | number of independent observations of peptide (myosin heavy chain α; tryptic peptide TECFVPDDKEEYVK) | Position of modified Cys (myosin heavy chain α) | number of independent observations of peptide (myson binding protein C; chymotryptic peptide ECEVSEEGAQVKW) | Position of modified Cys (myson binding protein C) | number of independent observations of peptide (myosin light chain 1) | Position of modified Cys (myosin light chain 1) | number of independent observations of peptide (α actin; Cys 12, chymotryptic peptide VCDNGSLVKAGF) | number of independent observations of peptide (α actin; [1]) | number of independent observations of peptide (α actin; [2]) | number of independent observations of peptide (troponin C (cardiac)) | Position of modified Cys (troponin C (cardiac)) | Ca50 (intact trabeculae; [3]) | Hill coefficient (intact trabeculae; [3]) | maximum force of contraction (intact trabeculae; [3]) | number of independent observations of peptide (myson binding protein C; tryptic peptide VEFECEVSEEGAQVK) | number of independent observations of peptide (α actin; Cys 257, chymotryptic peptide RCPETLFQPSF) | Hill (intact trabeculae; NCA 20 μmol/L, intact muscles) | [Ca2+]i required for 50% of activation (Ca50) (intact trabeculae; NCA 20 μmol/L, intact muscles) | maximal Ca2+-activated force (Fmax) (intact trabeculae; NCA 20 μmol/L, intact muscles) [mN/mm^2]
[Na+].[Na+].[O-][N+]([O-])=NO [AS, Angeli's Salt] | 3 | 3 | 37(α) | 2 | 475 | 2 | 81 | 2 | 3 | 1 | 2 | 35 | without altering | without altering | increase | – | – | – | – | –
CC(=O)OC1(N=O)CCCCC1 [NCA, 1-nitrosocyclohexylacetate] | – | 3 | 37(α) | – | 475 | 2 | 81 | – | 3 | 1 | 2 | 35 | – | – | – | 1 | 1 | 4.92±0.84 | 0.42±0.01 | 123±18
